Assay results from PubChem BioAssay (NCI).
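Assay format: 96-well plates, 48-hour exposure. At the TGI there is no net growth.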

How the values were obtained:
Assay in all cases: NCI tumour cell line growth inhibition, 48 h
786-0 renal = test system: 786-0 renal
A498 renal = test system: A498 renal
A549 NSCLC = test system: A549 NSCLC
ACHN renal = test system: ACHN renal
CAKI-1 renal = test system: CAKI-1 renal
COLO 205 colon = test system: COLO 205 colon
DLD-1 colon = test system: DLD-1 colon
DMS 114 small cell lung = test system: DMS 114 small cell lung
DMS 273 small cell lung = test system: DMS 273 small cell lung
EKVX NSCLC = test system: EKVX NSCLC
HCC-2998 colon = test system: HCC-2998 colon
HCT-116 colon = test system: HCT-116 colon
HCT-15 colon = test system: HCT-15 colon
HL-60(TB) leukemia = test system: HL-60(TB) leukemia
HOP-18 NSCLC = test system: HOP-18 NSCLC
HOP-62 NSCLC = test system: HOP-62 NSCLC
HOP-92 NSCLC = test system: HOP-92 NSCLC
HT29 colon = test system: HT29 colon
IGROV1 ovarian = test system: IGROV1 ovarian
K-562 leukemia = test system: K-562 leukemia
KM12 colon = test system: KM12 colon
KM20L2 colon = test system: KM20L2 colon
LOX IMVI melanoma = test system: LOX IMVI melanoma
LXFL 529 NSCLC = test system: LXFL 529 NSCLC
M14 melanoma = test system: M14 melanoma
M19-MEL melanoma = test system: M19-MEL melanoma
MALME-3M melanoma = test system: MALME-3M melanoma
MOLT-4 leukemia = test system: MOLT-4 leukemia
NCI-H226 lung = test system: NCI-H226 lung
NCI-H23 lung = test system: NCI-H23 lung
NCI-H460 lung = test system: NCI-H460 lung
NCI-H522 lung = test system: NCI-H522 lung
OVCAR-3 ovarian = test system: OVCAR-3 ovarian
OVCAR-4 ovarian = test system: OVCAR-4 ovarian
OVCAR-5 ovarian = test system: OVCAR-5 ovarian
OVCAR-8 ovarian = test system: OVCAR-8 ovarian
RPMI-8226 leukemia = test system: RPMI-8226 leukemia
RXF 393 renal = test system: RXF 393 renal
RXF-631 renal = test system: RXF-631 renal
SF-268 CNS = test system: SF-268 CNS
SF-295 CNS = test system: SF-295 CNS
SF-539 CNS = test system: SF-539 CNS
SK-MEL-2 melanoma = test system: SK-MEL-2 melanoma
SK-MEL-28 melanoma = test system: SK-MEL-28 melanoma
SK-MEL-5 melanoma = test system: SK-MEL-5 melanoma
SK-OV-3 ovarian = test system: SK-OV-3 ovarian
SN12C renal = test system: SN12C renal
SNB-19 CNS = test system: SNB-19 CNS
SNB-75 CNS = test system: SNB-75 CNS
SNB-78 CNS = test system: SNB-78 CNS
SW-620 colon = test system: SW-620 colon
TK-10 renal = test system: TK-10 renal
U251 CNS = test system: U251 CNS
UACC-257 melanoma = test system: UACC-257 melanoma
UACC-62 melanoma = test system: UACC-62 melanoma
UO-31 renal = test system: UO-31 renal
CCRF-CEM leukemia = test system: CCRF-CEM leukemia
XF 498 CNS = test system: XF 498 CNS

SMILES: Clc1ccc(CCc2ccncn2)c(Cl)c1
- TGI (786-0 renal): > 100 µM
- TGI (A498 renal): > 100 µM
- TGI (A549 NSCLC): > 100 µM
- TGI (ACHN renal): > 100 µM
- TGI (CAKI-1 renal): > 100 µM
- TGI (COLO 205 colon): > 100 µM
- TGI (DLD-1 colon): > 100 µM
- TGI (DMS 114 small cell lung): > 100 µM
- TGI (DMS 273 small cell lung): > 100 µM
- TGI (EKVX NSCLC): > 100 µM
- TGI (HCC-2998 colon): > 100 µM
- TGI (HCT-116 colon): > 100 µM
- TGI (HCT-15 colon): > 100 µM
- TGI (HL-60(TB) leukemia): > 100 µM
- TGI (HOP-18 NSCLC): > 100 µM
- TGI (HOP-62 NSCLC): > 100 µM
- TGI (HOP-92 NSCLC): > 100 µM
- TGI (HT29 colon): > 100 µM
- TGI (IGROV1 ovarian): > 100 µM
- TGI (K-562 leukemia): > 100 µM
- TGI (KM12 colon): > 100 µM
- TGI (KM20L2 colon): > 100 µM
- TGI (LOX IMVI melanoma): > 100 µM
- TGI (LXFL 529 NSCLC): > 100 µM
- TGI (M14 melanoma): > 100 µM
- TGI (M19-MEL melanoma): > 100 µM
- TGI (MALME-3M melanoma): > 100 µM
- TGI (MOLT-4 leukemia): > 100 µM
- TGI (NCI-H226 lung): > 100 µM
- TGI (NCI-H23 lung): > 100 µM
- TGI (NCI-H460 lung): > 100 µM
- TGI (NCI-H522 lung): > 100 µM
- TGI (OVCAR-3 ovarian): > 100 µM
- TGI (OVCAR-4 ovarian): > 100 µM
- TGI (OVCAR-5 ovarian): > 100 µM
- TGI (OVCAR-8 ovarian): > 100 µM
- TGI (RPMI-8226 leukemia): > 100 µM
- TGI (RXF 393 renal): 82.4 µM
- TGI (RXF-631 renal): > 100 µM
- TGI (SF-268 CNS): > 100 µM
- TGI (SF-295 CNS): > 100 µM
- TGI (SF-539 CNS): > 100 µM
- TGI (SK-MEL-2 melanoma): > 100 µM
- TGI (SK-MEL-28 melanoma): > 100 µM
- TGI (SK-MEL-5 melanoma): 51.2 µM
- TGI (SK-OV-3 ovarian): > 100 µM
- TGI (SN12C renal): > 100 µM
- TGI (SNB-19 CNS): > 100 µM
- TGI (SNB-75 CNS): > 100 µM
- TGI (SNB-78 CNS): > 100 µM
- TGI (SW-620 colon): > 100 µM
- TGI (TK-10 renal): > 100 µM
- TGI (U251 CNS): > 100 µM
- TGI (UACC-257 melanoma): > 100 µM
- TGI (UACC-62 melanoma): > 100 µM
- TGI (UO-31 renal): 94 µM

SMILES: CCN(CC)CCC1(C2CCCCC2)CCC(=O)NC1=O (stereo unspecified)
- TGI (786-0 renal): > 100 µM
- TGI (A498 renal): > 100 µM
- TGI (A549 NSCLC): > 100 µM
- TGI (ACHN renal): > 100 µM
- TGI (CAKI-1 renal): > 100 µM
- TGI (CCRF-CEM leukemia): > 100 µM
- TGI (COLO 205 colon): > 100 µM
- TGI (DLD-1 colon): > 100 µM
- TGI (DMS 114 small cell lung): > 100 µM
- TGI (DMS 273 small cell lung): > 100 µM
- TGI (EKVX NSCLC): > 100 µM
- TGI (HCC-2998 colon): > 100 µM
- TGI (HCT-116 colon): > 100 µM
- TGI (HCT-15 colon): > 100 µM
- TGI (HOP-62 NSCLC): > 100 µM
- TGI (HT29 colon): > 100 µM
- TGI (IGROV1 ovarian): > 100 µM
- TGI (K-562 leukemia): > 100 µM
- TGI (KM12 colon): > 100 µM
- TGI (KM20L2 colon): > 100 µM
- TGI (LOX IMVI melanoma): > 100 µM
- TGI (LXFL 529 NSCLC): > 100 µM
- TGI (M14 melanoma): > 100 µM
- TGI (M19-MEL melanoma): > 100 µM
- TGI (MALME-3M melanoma): > 100 µM
- TGI (MOLT-4 leukemia): > 100 µM
- TGI (NCI-H226 lung): > 100 µM
- TGI (NCI-H23 lung): > 100 µM
- TGI (NCI-H460 lung): > 100 µM
- TGI (NCI-H522 lung): > 100 µM
- TGI (OVCAR-3 ovarian): > 100 µM
- TGI (OVCAR-4 ovarian): > 100 µM
- TGI (OVCAR-5 ovarian): > 100 µM
- TGI (OVCAR-8 ovarian): > 100 µM
- TGI (RPMI-8226 leukemia): > 100 µM
- TGI (RXF 393 renal): > 100 µM
- TGI (RXF-631 renal): > 100 µM
- TGI (SF-268 CNS): > 100 µM
- TGI (SF-295 CNS): > 100 µM
- TGI (SF-539 CNS): > 100 µM
- TGI (SK-MEL-2 melanoma): > 100 µM
- TGI (SK-MEL-28 melanoma): > 100 µM
- TGI (SK-MEL-5 melanoma): > 100 µM
- TGI (SK-OV-3 ovarian): > 100 µM
- TGI (SN12C renal): > 100 µM
- TGI (SNB-19 CNS): > 100 µM
- TGI (SNB-75 CNS): > 100 µM
- TGI (SNB-78 CNS): > 100 µM
- TGI (SW-620 colon): > 100 µM
- TGI (TK-10 renal): > 100 µM
- TGI (U251 CNS): > 100 µM
- TGI (UACC-257 melanoma): > 100 µM
- TGI (UACC-62 melanoma): > 100 µM
- TGI (UO-31 renal): > 100 µM
- TGI (XF 498 CNS): > 100 µM
